Data as given in ChEMBL document CHEMBL1134898, “Synthesis and biological evaluation of novel D-2'-azido-2',3'-dideoxyarabinofuranosyl-4'-thiopyrimidines and purines” (Bioorg Med Chem Lett, 2002).
Converted amounts (≈) assume the structure as drawn.

Legend:
Human alphaherpesvirus 2 = test: Compound was tested for antiviral activity against HSV-2; type: functional, organism-based
Human alphaherpesvirus 1 = test: Compound was tested for antiviral activity against HSV-1; type: functional, organism-based
MT4 [1] = test: Compound was tested for antiviral activity indicative of 50% cytopathic concentration in virus (HIV-1) infected MT-4 cells.; type: functional, cell-based; conditions: Homo sapiens
MT4 [2] = test: Cytotoxicity indicative of 50% survival concentration in virus-uninfected MT-4 cells.; type: functional; conditions: Homo sapiens
MT4 [3] = test: Cytotoxicity indicative of 50% survival concentration in virus -uninfected MT-4 cells.; type: functional; conditions: Homo sapiens
MT4 [4] = test: Cytotoxicity indicative of 50% survival concentration in HSV-2-uninfected MT-4 cells.; type: functional; conditions: Homo sapiens
MT4 [5] = test: Cytotoxicity indicative of 50% survival concentration in HSV-1-uninfected MT-4 cells.; type: functional; conditions: Homo sapiens

**Q.** For `Cc1cn([C@H]2C[C@H](N=[N+]=[N-])[C@@H](CO)O2)c(=O)[nH]c1=O` [ZIDOVUDINE], which EC50 (Human alphaherpesvirus 2) is on record?
**A.** > 100 µg/mL

**Q.** And the EC50 (Human alphaherpesvirus 1)?
**A.** 0.52 µg/mL (≈ 1.95 µM)

**Q.** What about the EC50 (MT4 [1]) of the same molecule?
**A.** 0.0005 µg/mL (≈ 0.00187 µM)

**Q.** And the CC50 (MT4 [2])?
**A.** 0.52 µg/mL (≈ 1.95 µM)

**Q.** Which results are given for `CNc1ncnc2c1ncn2[C@H]1S[C@H](CO)C[C@@H]1N=[N+]=[N-]`?
**A.** EC50 (Human alphaherpesvirus 2): > 100 µg/mL; EC50 (Human alphaherpesvirus 1): > 100 µg/mL; EC50 (MT4 [1]): > 61.5 µg/mL; CC50 (MT4 [2]): 61.5 µg/mL (≈ 201 µM)

**Q.** Which results are given for `[N-]=[N+]=N[C@H]1C[C@@H](CO)S[C@@H]1n1cnc2c(N)ncnc21`?
**A.** EC50 (Human alphaherpesvirus 2): > 100 µg/mL; EC50 (Human alphaherpesvirus 1): > 100 µg/mL; EC50 (MT4 [1]): > 17.3 µg/mL; CC50 (MT4 [2]): 17.3 µg/mL (≈ 59.2 µM)

**Q.** `[N-]=[N+]=N[C@H]1C[C@@H](CO)S[C@H]1n1ccc(N)nc1=O` was tested. Which EC50 (Human alphaherpesvirus 2) did it give?
**A.** > 100 µg/mL

**Q.** And the EC50 (Human alphaherpesvirus 1)?
**A.** > 100 µg/mL

**Q.** And the CC50 (MT4 [3])?
**A.** 41.7 µg/mL (≈ 155 µM)

**Q.** And the EC50 (MT4 [1])?
**A.** > 41.7 µg/mL

**Q.** What does the source list for `CNc1ncnc2c1ncn2[C@@H]1SC(CO)C[C@@H]1N=[N+]=[N-]` (single isomer, unassigned)?
**A.** EC50 (Human alphaherpesvirus 2): > 100 µg/mL; EC50 (Human alphaherpesvirus 1): > 100 µg/mL; EC50 (MT4 [1]): > 48.1 µg/mL; CC50 (MT4 [2]): 48.1 µg/mL (≈ 157 µM)

**Q.** Which results are given for `Cc1cn([C@H]2S[C@H](CO)C[C@@H]2N=[N+]=[N-])c(=O)[nH]c1=O`?
**A.** EC50 (Human alphaherpesvirus 2): > 100 µg/mL; EC50 (Human alphaherpesvirus 1): > 100 µg/mL; EC50 (MT4 [1]): > 63.5 µg/mL; CC50 (MT4 [2]): 63.5 µg/mL (≈ 224 µM)

**Q.** `Cc1cn([C@@H]2S[C@H](CO)C[C@@H]2N=[N+]=[N-])c(=O)[nH]c1=O` was tested. Which EC50 (Human alphaherpesvirus 2) did it give?
**A.** > 100 µg/mL

**Q.** What about the EC50 (Human alphaherpesvirus 1) of the same molecule?
**A.** > 100 µg/mL

**Q.** And the EC50 (MT4 [1])?
**A.** > 56.5 µg/mL

**Q.** And the CC50 (MT4 [2])?
**A.** 56.1 µg/mL (≈ 198 µM)

**Q.** For `[N-]=[N+]=N[C@H]1C[C@@H](CO)S[C@H]1n1cnc2c(N)ncnc21`, which EC50 (Human alphaherpesvirus 2) is on record?
**A.** > 100 µg/mL

**Q.** What about the EC50 (Human alphaherpesvirus 1) of the same molecule?
**A.** > 100 µg/mL

**Q.** What about the EC50 (MT4 [1]) of the same molecule?
**A.** > 66.6 µg/mL

**Q.** And the CC50 (MT4 [2])?
**A.** 66.6 µg/mL (≈ 228 µM)

**Q.** What does the source list for `Nc1nc2c(ncn2COCCO)c(=O)[nH]1` [ACYCLOVIR]?
**A.** CC50 (MT4 [4]): > 11.4 µg/mL; EC50 (Human alphaherpesvirus 2): 0.88 µg/mL (≈ 3.91 µM); EC50 (Human alphaherpesvirus 1): 0.13 µg/mL (≈ 0.577 µM); CC50 (MT4 [5]): > 76.6 µg/mL

**Q.** With `[N-]=[N+]=NC1C[C@@H](CO)S[C@@H]1n1ccc(N)nc1=O` (stereo not given in full) as the molecule, how does the EC50 (Human alphaherpesvirus 2) read?
**A.** > 100 µg/mL

**Q.** And the EC50 (Human alphaherpesvirus 1)?
**A.** > 100 µg/mL

**Q.** And the EC50 (MT4 [1])?
**A.** > 100 µg/mL

**Q.** What about the CC50 (MT4 [2]) of the same molecule?
**A.** > 100 µg/mL
